Reference: patent US11026944B2, “Compositions and methods for treating insomnia” (Eisai R&D Management Co., Ltd., priority 2014, dated 2021)
Read-outs that look alike come from different tables or passages of the source.

Tests used:
Format in all cases: in vivo, human
[1] = 001 Study Part B: plasma PK of compound A; details: subjects with primary insomnia, single evening dose
Protocol: For subjects in Part B, blood samples for measurements of plasma concentrations of compound A were obtained by direct venipuncture on Day 1 predose and at 0.5, 9, 12, 24, 36, 60, 84, 108, 156, and 228 hours postdose.
Plasma concentrations of compound A were measured using a validated liquid chromatography-mass spectrometry/mass spectrometry (LC-MS/MS) assay.

[2] = Multiple ascending dose study (002 Study): plasma PK; details: for concentration at 8 h / concentration at 10 h / AUC(0-t) / Cmax / Tmax / half-life: human, oral; for concentration at 8 h: plasma at 8 h, read-out: C8 Mean(SD); for concentration at 10 h: plasma at 10 h, read-out: C10 Mean(SD); for AUC(0-t) / Cmax / Tmax / half-life: plasma; for AUC(0-t): read-out: AUC(0-24) Mean(SD); for Cmax: read-out: Cmax Mean(SD); for Tmax: read-out: tmax Median
Protocol: A total of 48 healthy adult subjects (18 to 55 years) were to be enrolled into 1 of 6 cohorts sequentially in a gradual dose escalation manner, and randomized to receive either compound A or compound A-matched placebo in the evening 30 minutes before habitual bedtime, and after 3 hours fasting, for 14 days. Each cohort was to comprise 6 compound A-treated subjects and 2 placebo-treated subjects. Blood samples were collected for PK analysis at prespecified timepoints, and PD assessments were conducted.
Blood samples for determination of plasma concentrations of compound A were collected at Day 1 predose and postdose 0.5 (30 minutes), 1, 1.5, 2, 3, 4, 5, 6, 8, 10, and 12 hours; Days 2 to 13: predose; Day 14: predose and postdose 0.5 (30 minutes), 1, 1.5, 2, 3, 4, 5, 6, 8, 10, and 12 hours; Day 15: 24 hours after Day 14 dose; Days 16 to 19: 36, 60, 84, and 108 hours after Day 14 dose; Day 21, 24, 26, 28: As close as possible to 156, 228, 276, and 324 hours after Day 14 dose. Plasma concentrations of compound A were measured in the same manner as described in Example 1 and the above noncompartmental plasma PK parameters were calculated for compound A.
Compound A capsules and compound A-matched placebo capsules were available in strengths of 2.5 mg, 10 mg, and 50 mg. All study drugs were administered as daily doses using one or more compound A-capsules or compound A-matched placebo capsules due to the test dose.

[3] = test system: subjects with primary insomnia; assay: 001 Study Part B: next day KSS, DSST, PVT
Description: After the initial Screening visit, eligible subjects were scheduled to return to the clinic for 2 days during the Screening Period to conduct screening/baseline PSGs. These two days occurred at least 3 days after the initial Screening visit and within a window from Day-7 to Day-6 (±2 days). The first PSG was used to screen for sleep apnea and periodic limb movements in sleep (PLMS) and serve as the first baseline PSG. The second PSG was used as the second baseline PSG. Specific PSG variables were used to determine whether subjects met PSG inclusion criteria, and the average of PSG variables from these two PSGs was used as Baseline for this PD measure. Subjects who had met PSG inclusion criteria returned to the clinic on Day-1 for additional baseline procedures and randomization. Subjects were not allowed to nap on Day 1. On the evening of Day 1, after fasting a minimum of 3 hours, study drug was administered 30 minutes prior to the subject's habitual bedtime (lights-out), as calculated from the sleep diary for the first PSG during the Screening Period. PK blood samples were collected at prespecified timepoints, and PD assessments were performed. PSG was recorded on Day 1, postdose. Subjects were administered additional PD assessments each morning on Day 1 through Day 6. These assessments included the KSS, DSST, and PVT, in order to assess daytime sleepiness, level of alertness, and ability to concentrate. The KSS and DSST were also administered 5 minutes predose and 25 minutes postdose on Day 1, just prior to lights-out. Waketime Questionnaires were administered after the PD assessments within 15 minutes of lights-on, on Day 1 to Day 6. Time and duration of naps was recorded on Day 2.
Part B subjects were administered the KSS, DSST, and PVT within 15 minutes after lights-on specifically in that order, on each morning from Day 1 through Day 6, followed by the Waketime Questionnaire. The KSS and DSST were also administered 5 minutes predose and 25 minutes postdose on Day 1 (just prior to lights-out).

[4] = 2.5 mg, Day 1, 2.5 mg once daily in the evening
[5] = 2.5 mg, Day 14, 2.5 mg once daily for 14 days
[6] = 5 mg, Day 1, 5 mg once daily in the evening
[7] = 5 mg, Day 14, 5 mg once daily for 14 days
[8] = 10 mg, Day 1, 10 mg once daily in the evening
[9] = 10 mg, Day 14, 10 mg once daily for 14 days
[10] = 25 mg, Day 1, 25 mg once daily in the evening
[11] = 25 mg, Day 14, 25 mg once daily for 14 days
[12] = 50 mg, Day 1, 50 mg once daily in the evening
[13] = 50 mg, Day 14, 50 mg once daily for 14 days
[14] = 75 mg, Day 1, 75 mg once daily in the evening
[15] = 75 mg, Day 14, 75 mg once daily for 14 days

## Cc1ncc(OC[C@@]2(c3cccc(F)c3)C[C@H]2C(=O)Nc2ccc(F)cn2)c(C)n1 [Compound A, (1R,2 S)-2-(((2,4-dimethylpyrimidin-5-yl)oxy)methyl)-2-(3-fluorophenyl)-N-(5-fluoropyridin-2-yl) cyclopropanecarboxamide]
[1]
  concentration-time profiles in Part B compared with Part A: approximately similar to their corresponding dose groups in Part A
[2]; 14 days once daily
  Accumulation: lower than predicted by the terminal half-life
[2]; Day 1, 25 mg once daily in the evening
  Cmax Mean(SD): 92.0(24.0) ng/mL
[2]; Day 14, 50 mg once daily for 14 days
  t1/2 Mean(SD): 55.5(21.3) h
[2]; dose-normalized data, Day 1
  AUC(0-24 h) dose proportionality: increased slightly less than in proportion to dose
[2]; dose-normalized data, Day 1 and Day 14
  Cmax dose proportionality: increased slightly less than in proportion to dose
[2]; dose-normalized data, Day 14
  AUC(0-24 h) dose proportionality: increased in approximate proportion to dose
[2]; Day 1, 2.5 mg
  concentration at 8 h: 2.33 ng/mL
  concentration at 10 h: 2.04 ng/mL
[2]; Day 1, 5 mg
  concentration at 8 h: 4.4 ng/mL
  concentration at 10 h: 3.63 ng/mL
[2]; Day 1, 10 mg
  concentration at 8 h: 8.51 ng/mL
  concentration at 10 h: 7.72 ng/mL
[2]; Day 1, 25 mg
  concentration at 8 h: 24.1 ng/mL
  concentration at 10 h: 19.8 ng/mL
[2]; Day 1, 50 mg
  concentration at 8 h: 38.1 ng/mL
  concentration at 10 h: 32.9 ng/mL
[2]; Day 1, 75 mg
  concentration at 8 h: 54.5 ng/mL
  concentration at 10 h: 44.2 ng/mL
[2]; [4]
  AUC(0-t): 59.4 ng·h/mL
  Cmax: 10.1 ng/mL
  Tmax: 2.02 h
[2]; [5]
  AUC(0-t): ~120 ng·h/mL
  Cmax: ~15 ng/mL
  Tmax: ~2 h
[2]; 2.5 mg, Day 14, 2.5 mg once daily for 14 days, read-out: t1/2 Mean(SD) (converted)
  half-life: ~44 h
[2]; [6]
  AUC(0-t): 108 ng·h/mL
  Cmax: 19.4 ng/mL
  Tmax: 1.25 h
[2]; [7]
  AUC(0-t): ~190 ng·h/mL
  Cmax: ~24 ng/mL
  Tmax: ~1 h
[2]; 5 mg, Day 14, 5 mg once daily for 14 days, read-out: t1/2 Mean(SD) (converted)
  half-life: ~46 h
[2]; [8]
  AUC(0-t): 187 ng·h/mL
  Cmax: 30.4 ng/mL
  Tmax: 3.25 h
[2]; [9]
  AUC(0-t): ~360 ng·h/mL
  Cmax: ~47 ng/mL
  Tmax: ~2 h
[2]; 10 mg, Day 14, 10 mg once daily for 14 days, read-out: t1/2 Mean(SD) (converted)
  half-life: ~55 h
[2]; 10 mg, doses of 10 mg and higher, following Day 14 dosing, read-out: mean terminal half-life (converted)
  half-life: ~55 h
[2]; [10]
  AUC(0-t): 549 ng·h/mL
  Tmax: 1.5 h
[2]; [11]
  AUC(0-t): 1100 ng·h/mL
  Cmax: 107 ng/mL
  Tmax: 3 h
[2]; 25 mg, Day 14, 25 mg once daily for 14 days, read-out: t1/2 Mean(SD) (converted)
  half-life: 50.6 h
[2]; 50 mg, 50-mg dose, read-out: effective half-life based on accumulation (converted)
  half-life: 28 h
[2]; [12]
  AUC(0-t): 931 ng·h/mL
  Cmax: 199 ng/mL
  Tmax: 2 h
[2]; [13]
  AUC(0-t): 2300 ng·h/mL
  Cmax: 220 ng/mL
  Tmax: 2.02 h
[2]; 75 mg, 75-mg dose, read-out: effective half-life based on accumulation (converted)
  half-life: 39.3 h
[2]; [14]
  AUC(0-t): 1260 ng·h/mL
  Cmax: 223 ng/mL
  Tmax: 3 h
[2]; [15]
  AUC(0-t): 3790 ng·h/mL
  Cmax: 420 ng/mL
  Tmax: 2 h
[2]; 75 mg, Day 14, 75 mg once daily for 14 days, read-out: t1/2 Mean(SD) (converted)
  half-life: 56.2 h
[2]; 2.5- and 5-mg doses, average, read-out: terminal half-life (converted)
  half-life: ~45 h
[2]; doses ranging from 2.5 to 25 mg, read-out: effective half-life based on accumulation (converted)
  half-life: 16.9 to 24.7 h
[3]; any dose of compound A (2.5, 10, 25 mg), zolpidem 10 mg
  next day effects on KSS, DSST, or PVT: no clinically significant next day effects
[3]; single 25 mg evening dose
  measures of next-day residual sleepiness: some individuals at this dose exhibited increases from baseline
